Data published in patent US9346754B2, “Method of treating advanced non-alcoholic steatohepatitis” (priority 2014, dated 2016).
Entries after “also recorded” stand apart in the source; their conditions may differ.

Columns and labels:
Type in all cases: in vivo, C57BL/6 mice
[1] = tested on: TIMP-1 mRNA; experiment: Liver gene expression by quantitative RT-PCR: TIMP-1; conditions: 10 mg/kg oral once daily, 8 to 12 weeks of age (MN-001-low; Telmisartan)
Procedure: (§1) Total RNA was extracted from liver samples using RNAiso (Takara Bio, Japan) according to the manufacturer's instructions. One μg of RNA was reverse-transcribed using a reaction mixture containing 4.4 mM MgCl2 (F. Hoffmann-La Roche, Switzerland), 40 U RNase inhibitor (Toyobo, Japan), 0.5 mM dNTP (Promega, USA), 6.28 μM random hexamer (Promega), 5× first strand buffer (Promega), 10 mM dithiothreitol (Invitrogen, USA) and 200 U MMLV-RT (Invitrogen) in a final volume of 20 μL. The reaction was carried out for 1 hour at 37° C., followed by 5 minutes at 99° C. Real-time PCR was performed using real-time PCR DICE and SYBR premix Taq (Takara Bio). To calculate the relative mRNA expression level, the expression of each gene was normalized to that of reference gene 36B4 (gene symbol: Rp1p0). Information of PCR-primer sets are described in Table 1. [table] […] P values<0.05 were considered statistically significant. […] Results were expressed as mean±SD.

[2] = tested on: STAM Model of Advanced Non-Alcoholic Steatohepatitis; experiment: Alpha-SMA immunostaining, α-SMA-positive area in STAM mice; conditions: for Alpha-SMA-positive area: mean ± SD
Procedure: (§2) For immunohistochemistry, sections were cut from frozen liver tissues embedded in Tissue-Tek O.C.T. compound and fixed in acetone. Endogenous peroxidase activity was blocked using 0.03% H2O2 for 5 minutes, followed by incubation with Block Ace (Dainippon Sumitomo Pharma, Japan) for 10 minutes. The sections were incubated with a 200-fold dilution of anti-α-SMA (Epitomics, USA) or anti-F4/80 antibody (BMA Biomedicals, Switzerland) 1 hour at room temperature. […] For quantitative analysis of fibrosis area, inflammation area, and semi-quantification of α-SMA, bright field images of Sirius red-stained, F4/80- and α-SMA-immunostained sections were captured around the central vein using a digital camera (DFC280: Leica Microsystems, Germany) at 200-fold magnification, and the positive areas in 5 fields/section were measured using ImageJ software (National Institute of Health, USA). […] P values<0.05 were considered statistically significant. […] Results were expressed as mean±SD.

[3] = tested on: STAM Model of Advanced Non-Alcoholic Steatohepatitis; experiment: HE staining and NAFLD Activity Score (NAS) in STAM mice; design: key to NAS (NAFLD Activity Score): NAS scored per Kleiner criteria (Hepatology 2005); conditions: for NAS (NAFLD Activity Score): mean ± SD; for Number of mice with Steatosis score 0: score 0 = <5%; for Number of mice with Lobular inflammation score 0: score 0 = No foci; for Number of mice with Steatosis score 1: score 1 = 5-33%; for Number of mice with Lobular inflammation score 1: score 1 = <2 foci/200x; for Number of mice with Hepatocyte ballooning score 1: score 1 = Few balloon cells; for Number of mice with Lobular inflammation score 2: score 2 = 2-4 foci/200x; for Number of mice with Steatosis score 2: score 2 = >33-66%; for Number of mice with Hepatocyte ballooning score 2: score 2 = Many cells/prominent ballooning
Procedure: STAM™ is a useful model for advanced non-alcoholic steatohepatitis (advanced NASH), symptoms thereof, and related liver disorders, created by the combination of chemical and dietary interventions in C57BL/6 mice. In this example, after inducing NASH, it was allowed to reach an advanced stage, and the mice were treated at 8-12 weeks. […] Vehicle, MN-001, and Telmisartan were administered by oral route in a volume of 10 mL/kg. […] For HE staining, sections were cut from paraffin blocks of liver tissue prefixed in Bouin's solution and stained with Lillie-Mayer's Hematoxylin (Muto Pure Chemicals, Japan) and eosin solution (Wako Pure Chemical Industries). NAFLD Activity score (NAS) was calculated according to the criteria of Kleiner (Kleiner D E. et al., Hepatology, 2005; 41:1313). To visualize collagen deposition, Bouin's fixed liver sections were stained using picro-Sirius red solution (Waldeck, Germany). […] P values<0.05 were considered statistically significant. […] Results were expressed as mean±SD. Ten NASH mice were orally administered vehicle supplemented with MN-001 at a dose of 10 mg/kg once daily from 8 to 12 weeks of age. Ten NASH mice were orally administered vehicle supplemented with MN-001 at a dose of 30 mg/kg once daily from 8 to 12 weeks of age. Ten NASH mice were orally administered vehicle supplemented with MN-001 at a dose of 100 mg/kg once daily from 8 to 12 weeks of age. Ten NASH mice were orally administered pure water supplemented with Telmisartan at a dose of 10 mg/kg once daily from 8 to 12 weeks of age.

[4] = tested on: STAM Model of Advanced Non-Alcoholic Steatohepatitis; experiment: Sirius red staining, percentage of fibrosis area in STAM mice; conditions: for Sirius red-positive area (fibrosis area): mean ± SD
Procedure: For HE staining, sections were cut from paraffin blocks of liver tissue prefixed in Bouin's solution and stained with Lillie-Mayer's Hematoxylin (Muto Pure Chemicals, Japan) and eosin solution (Wako Pure Chemical Industries). NAFLD Activity score (NAS) was calculated according to the criteria of Kleiner (Kleiner D E. et al., Hepatology, 2005; 41:1313). To visualize collagen deposition, Bouin's fixed liver sections were stained using picro-Sirius red solution (Waldeck, Germany). For quantitative analysis of fibrosis area, inflammation area, and semi-quantification of α-SMA, bright field images of Sirius red-stained, F4/80- and α-SMA-immunostained sections were captured around the central vein using a digital camera (DFC280: Leica Microsystems, Germany) at 200-fold magnification, and the positive areas in 5 fields/section were measured using ImageJ software (National Institute of Health, USA). […] P values<0.05 were considered statistically significant. […] Results were expressed as mean±SD.

[5] = tested on: STAM Model of Advanced Non-Alcoholic Steatohepatitis; experiment: F4/80 immunostaining, percentage of inflammation area in STAM mice; conditions: for F4/80-positive area (inflammation area): mean ± SD
Procedure: as §2

[6] = tested on: Alpha-SMA mRNA; experiment: Liver gene expression by quantitative RT-PCR: Alpha-SMA
Procedure: as §1

[7] = 10 mg/kg oral once daily, 8 to 12 weeks of age (MN-001-low; Telmisartan)
[8] = 30 mg/kg oral once daily, 8 to 12 weeks of age (MN-001-middle)
[9] = 100 mg/kg oral once daily, 8 to 12 weeks of age (MN-001-high)
[10] = 10 mg/kg oral once daily, 8 to 12 weeks of age (MN-001-low n=10; Telmisartan n=9)
[11] = 30 mg/kg oral once daily, 8 to 12 weeks of age (MN-001-middle, n=10)
[12] = 100 mg/kg oral once daily, 8 to 12 weeks of age (MN-001-high, n=10)
[13] = all doses of MN-001 (10, 30, 100 mg/kg oral once daily, 8 to 12 weeks of age)
[14] = high dose, 100 mg/kg oral once daily, 8 to 12 weeks of age
[15] = middle dose, 30 mg/kg oral once daily, 8 to 12 weeks of age
[16] = any doses of MN-001 (10, 30, 100 mg/kg oral once daily, 8 to 12 weeks of age)
[17] = Telmisartan 10 mg/kg oral once daily, 8 to 12 weeks of age

How did the “TIMP-1 mRNA expression levels compared with the Vehicle group” value [1] turn out when CCCc1c(SCCCOc2ccc(C(C)=O)c(OCCCC(=O)O)c2CCC)ccc(C(C)=O)c1O [MN-001] was run?
Its value is “significantly down-regulated”.

And the “α-SMA-positive area compared with the Vehicle group” value [2, 7]?
The value was “significantly decreased”.

And the “α-SMA-positive area compared with the Vehicle group” value [2, 8]?
The value was “no significant difference”.

What about the “α-SMA-positive area compared with the Vehicle group” value [2, 9] of the same molecule?
Its value is “significantly decreased”.

What about the Alpha-SMA-positive area [2, 10] of the same molecule?
The Alpha-SMA-positive area was 0.45 ± 0.11%.

And the Alpha-SMA-positive area [2, 11]?
Its Alpha-SMA-positive area is 0.76 ± 0.19%.

What about the Alpha-SMA-positive area [2, 12] of the same molecule?
The Alpha-SMA-positive area was 0.48 ± 0.21%.

And the “Hepatocellular ballooning and inflammatory cell infiltration in HE-stained liver sections” value [3, 13]?
Its value is “marked improvements”.

And the “NAS compared with the Vehicle group” value [3, 13]?
The value was “significantly decreased”.

What about the Ballooning score [3, 14] of the same molecule?
The Ballooning score was “significantly reduced”.

What about the “NAS compared with the Vehicle group” value [3, 14] of the same molecule?
The value was “significantly decreased”.

And the “NAS (NAFLD Activity Score)” value [3, 10]?
The value was 3.6 ± 1.4.

And the “NAS (NAFLD Activity Score)” value [3, 11]?
Its value is 4.0 ± 0.9.

And the “NAS (NAFLD Activity Score)” value [3, 12]?
Its value is 3.1 ± 0.7.

What about the Ballooning score [3, 15] of the same molecule?
Its Ballooning score is “significantly reduced”.

And the “NAS compared with the Vehicle group” value [3, 15]?
Its value is “significantly decreased”.

What about the “Number of mice with Steatosis score 0” value [3, 10] of the same molecule?
The value was 3.

And the “Number of mice with Lobular inflammation score 0” value [3, 10]?
The value was 2.

And the “Number of mice with Lobular inflammation score 0” value [3, 11]?
Its value is 1.

What about the “Number of mice with Lobular inflammation score 0” value [3, 12] of the same molecule?
Its value is 4.

What about the “Number of mice with Steatosis score 1” value [3, 10] of the same molecule?
Its value is 6.

And the “Number of mice with Steatosis score 1” value [3, 11]?
The value was 7.

What about the “Number of mice with Steatosis score 1” value [3, 12] of the same molecule?
The value was 9.

What about the “Number of mice with Lobular inflammation score 1” value [3, 10] of the same molecule?
Its value is 2.

And the “Number of mice with Lobular inflammation score 1” value [3, 11]?
The value was 6.

What about the “Number of mice with Lobular inflammation score 1” value [3, 12] of the same molecule?
The value was 5.

What about the “Number of mice with Hepatocyte ballooning score 1” value [3, 10] of the same molecule?
The value was 6.

What about the “Number of mice with Hepatocyte ballooning score 1” value [3, 11] of the same molecule?
The value was 5.

What about the “Number of mice with Hepatocyte ballooning score 1” value [3, 12] of the same molecule?
Its value is 7.

And the “Number of mice with Lobular inflammation score 2” value [3, 10]?
Its value is 6.

What about the “Number of mice with Lobular inflammation score 2” value [3, 11] of the same molecule?
Its value is 3.

What about the “Number of mice with Lobular inflammation score 2” value [3, 12] of the same molecule?
The value was 1.

And the “Number of mice with Steatosis score 2” value [3, 10]?
Its value is 1.

What about the “Number of mice with Steatosis score 2” value [3, 11] of the same molecule?
The value was 3.

What about the “Number of mice with Steatosis score 2” value [3, 12] of the same molecule?
The value was 1.

And the “Number of mice with Hepatocyte ballooning score 2” value [3, 10]?
Its value is 4.

What about the “Number of mice with Hepatocyte ballooning score 2” value [3, 11] of the same molecule?
The value was 5.

And the “Number of mice with Hepatocyte ballooning score 2” value [3, 12]?
Its value is 3.

And the “Fibrosis area compared with the Vehicle group” value [4, 7]?
The value was “significantly decreased”.

What about the “Fibrosis area compared with the Vehicle group” value [4, 8] of the same molecule?
The value was “tended to decrease”.

What about the “Fibrosis area compared with the Vehicle group” value [4, 9] of the same molecule?
The value was “significantly decreased”.

And the “Sirius red-positive area (fibrosis area)” value [4, 10]?
The value was 0.75 ± 0.40%.

What about the “Sirius red-positive area (fibrosis area)” value [4, 11] of the same molecule?
The value was 0.95 ± 0.37%.

What about the “Sirius red-positive area (fibrosis area)” value [4, 12] of the same molecule?
Its value is 0.65 ± 0.28%.

What about the “Inflammation area compared with the Vehicle group” value [5, 16] of the same molecule?
The value was “no significant differences”.

What about the “F4/80-positive area (inflammation area)” value [5, 10] of the same molecule?
The value was 6.47 ± 2.67%.

What about the “F4/80-positive area (inflammation area)” value [5, 11] of the same molecule?
The value was 6.36 ± 1.59%.

What about the “F4/80-positive area (inflammation area)” value [5, 12] of the same molecule?
The value was 5.14 ± 0.89%.

And the “α-SMA mRNA expression levels compared with the Vehicle group” value [6, 16]?
The value was “no significant differences”.

With CCCc1nc2c(C)cc(-c3nc4ccccc4n3C)cc2n1Cc1ccc(-c2ccccc2C(=O)O)cc1 [Telmisartan, reference compound] as the molecule, how does the “TIMP-1 mRNA expression levels compared with the Vehicle group” value [1] read?
Its value is “significantly down-regulated”.

And the “α-SMA-positive area compared with the Vehicle group” value [2, 7]?
The value was “significantly decreased”.

What about the Alpha-SMA-positive area [2, 10] of the same molecule?
The Alpha-SMA-positive area was 0.35 ± 0.14%.

And the “NAS compared with the Vehicle group” value [3, 17]?
Its value is “significantly decreased”.

And the “NAS (NAFLD Activity Score)” value [3, 10]?
Its value is 2.8 ± 0.8.

And the “Number of mice with Steatosis score 0” value [3, 10]?
Its value is 2.

What about the “Number of mice with Lobular inflammation score 0” value [3, 10] of the same molecule?
The value was 2.

What about the “Number of mice with Steatosis score 1” value [3, 10] of the same molecule?
The value was 7.

And the “Number of mice with Lobular inflammation score 1” value [3, 10]?
Its value is 5.

What about the “Number of mice with Hepatocyte ballooning score 1” value [3, 10] of the same molecule?
The value was 9.

What about the “Number of mice with Lobular inflammation score 2” value [3, 10] of the same molecule?
The value was 2.

What about the “Fibrosis area compared with the Vehicle group” value [4, 7] of the same molecule?
The value was “significantly decreased”.

And the “Sirius red-positive area (fibrosis area)” value [4, 10]?
The value was 0.49 ± 0.19%.

What about the “Inflammation area compared with the Vehicle group” value [5, 17] of the same molecule?
Its value is “significantly decreased; also recorded: tended to decrease”.

And the “F4/80-positive area (inflammation area)” value [5, 10]?
Its value is 3.79 ± 1.60%.

And the “Alpha-SMA mRNA expression levels compared with the Vehicle group” value [6, 17]?
The value was “significantly down-regulated”.
